Results as given in US20240287081A1, “PERFLUOROALKANE SUBSTITUTED PYRAZOLO[3,4-D]PYRIMIDIN AND PYRROLO[2,3-D]PYRIMIDIN COMPOUNDS AND USES THEREOF” (ICAHN SCHOOL OF MEDICINE AT MOUNT SINAI, priority 2021, published 2024).

Key:
ptc>dRet^M955T flies = experiment: Fly rescue assay (Drosophila MTC model ptc>dRet^M955T); assay type: in vivo; conditions: compound in fly food; for rescue (percent viability of adult flies, adults/pupae×100): 13 d at 25° C., baseline viability 0%
Method: Kinase-mutated fly stocks were obtained from Bloomington Drosophila Stock Center (BDSC; Bloomington, IN). The active mutant form of Drosophila Ret (dRet^955T) carries an M955T mutation corresponding to the M918T mutation commonly reported for multiple endocrine neoplasia (MEN) type 2B patients12,14,16,34. The ptc-gal4, UAS-GFP;UAS-dRet^M955T/SM5tub-gal80-TM6B transgenic flies were prepared according to standard protocols and crossed with non-transgenic w-flies (BDSC) to generate ptc-gal4, UAS-GFP; UAS-dRet^M955T(ptc>dRet^M955T) flies for chemical screening.
All drugs were synthesized in-house. All compounds were dissolved in DMSO (Sigma-Aldrich; St. Louis, MO) and mixed with semi-defined fly medium (BDSC) to make drug food (0.1% final DMSO concentration). For drug screening, ptc>dRet^M955T embryos were raised until adulthood on drug food for 13 d at 25° C. The number of empty pupal cases (i.e., adults) ? that of total pupal cases (P) to determine % viability. Fly randomization was used throughout the assays.
In this model, compounds are assessed based on their ability to suppress oncogenic Ret^M955T-induced tumors, which can be quantified as ‘rescue’ from lethality. […] The baseline viability of ptc>Ret^1955T flies was calibrated to zero, which creates a high bar for rescue but also reduces false-positive hits. Hundreds of flies are tested per condition (typical n values are […] administered through fly food.

P-gp = experiment: MDCK permeability assay; assay type: in vitro ADME; conditions: dog, 1 hour at 37° C., HBSS pH 7.4 both sides, read-out: influx/efflux ratio in MDCK
Method: (§1) FIGS. 9A-9C show the physicochemical comparison of R^F and R^H Analogs. FIG. 9A is a graph of the MDCK and Caco-2 permeability assays for the indicated compounds. Compounds were assayed at 5 μM and transport (Papp, B-A and Papp, A-B, ×10^−6 cm/s) values were measured to determine influx over efflux ratios. […] There are differences in magnitude for bond and molecular dipoles, and R^F- and R^H-substituents have opposite charge profiles.
(§2) Caco-2 and MDCK permeability assays to assess transport in both directions, apical to basolateral (A-B) and basolateral to apical (B-A), across a cell monolayer were conducted at Quintara Discovery. The compounds were tested at a final concentration of 5 microM, with HBSS, pH 7.4 on apical side and HBSS, pH 7.4 on basolateral side. Transport was allowed to proceed for 1 hour at 37° C., with compound detection performed by LC-MS/MS. Assays were conducted twice. Papp, B-A and Papp, A-B, ×10^−6 cm/s values were determined at Quintara.

[1] = Caco-2 permeability assay; assay type: in vitro ADME; conditions: human, 1 hour at 37° C., HBSS pH 7.4 both sides, read-out: influx/efflux ratio in Caco-2
Method: as §1, §2

human MTC cell line TT = conditions: previous work; cited from earlier work
[2] = cited from earlier work
[3] = system: panel of 468 purified human kinases; experiment: In vitro kinase percent inhibition, panel of 468 kinases (DiscoverX); assay type: binding; conditions: 1 μM; for binding profile / selectivity across the kinome, in words: panel of 468 kinases
Method: Compounds were assayed against a panel of 468 purified human kinases (DiscoverX) to measure percentage inhibition values and derive kinome profiles (FIGS. 3B-3C). All compounds were screened at 1 μM, using two experimental replicates to determine percent inhibition values. Detailed procedures for kinase reactions and assay formats are described at http://www.discoverx.com. Raw data sets for individual compounds were filtered based on the variance of experimental replicates (cutoff=average variance+standard deviation).

[4] = target: T1, wild-type RET kinase domain (Homo sapiens, UniProt P07949); experiment: Wild-type RET Kd, bead based competition assay (KINOMEscan, DiscoverX); assay type: binding; conditions: recombinant human wild-type RET kinase domain, average of two replicates; read-out: Kd towards wild-type RET
T1 construct: determined against recombinant-human, wild-type RET kinase domain; phage display fusion (kinase expressed on phage); purchased DiscoverX (Fremont, CA); host or cells: phage
T1 sequence (P07949 724-1016 limits assumed): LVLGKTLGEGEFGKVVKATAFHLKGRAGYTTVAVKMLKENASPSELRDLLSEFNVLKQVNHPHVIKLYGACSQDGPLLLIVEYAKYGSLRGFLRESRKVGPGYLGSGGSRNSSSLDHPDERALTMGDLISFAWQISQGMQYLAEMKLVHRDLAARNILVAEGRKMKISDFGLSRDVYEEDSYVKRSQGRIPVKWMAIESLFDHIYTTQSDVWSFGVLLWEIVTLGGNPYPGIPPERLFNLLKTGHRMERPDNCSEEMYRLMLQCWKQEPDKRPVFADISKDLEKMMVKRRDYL
Method: Wild-type RET Kd values were determined by DiscoverX (Fremont, CA) using a bead based competition assay (KINOMEscan). In brief, kinases are expressed on phage and immobilized on beads via active site-directed ligands. Test compounds are premixed with kinases and assayed for the ability to compete for immobilized ligands. Binding constants are calculated with a standard dose-response curve and the Hill equation, with Hill slope set to −1. […] Kd values are the average of two experimental replicates.
To assess if the differences in activity between R^F- and R^H-analogs were related to alterations in target engagement, representative analogs for binding on wild-type RET were compared. For this KD values of compounds 40 (para-C2F5) and 50 (para-C2H5) were determined against recombinant-human, wild-type RET kinase domain.

| SMILES | rescue (percent viability of adult flies, adults/pupae×100) (ptc>dRet^M955T flies) | efflux ratio at 1 h, 5 µM (P-gp) | efflux ratio at 1 h, 5 µM [1] | performance in mouse xenograft, in words (human MTC cell line TT) | protein-bound in blood plasma [2] | binding to wild-type RET and RET^M918T, in words ([3]; kinase panel) | binding profile / selectivity across the kinome, in words [3] | binding profile / selectivity across the kinome, in words ([3]; listed as 4-9-8) | Kd [4] | rescue activity in the fly model, in words (ptc>dRet^M955T flies) |
| --- | --- | --- | --- | --- | --- | --- | --- | --- | --- | --- |
| CNC(=O)c1cc(Oc2ccc(NC(=O)Nc3cc(C(F)(C(F)(F)F)C(F)(F)F)ccc3F)cc2)ccn1 [APS-6-45] | 84% | < 2 | > 2 | performed well | – | – | – | – | – | – |
| CNC(=O)c1cc(Oc2ccc(NC(=O)Nc3ccc(Cl)c(C(F)(F)F)c3)cc2)ccn1 [Sorafenib, sorafenib] | – | < 2 | > 2 | – | > 99% | – | – | – | – | – |
| CNC(=O)c1cc(Oc2ccc(NC(=O)Nc3ccc(C(F)(F)F)cc3)c(F)c2)ccn1 [APS-4-9-8] | 0% | – | – | – | – | strong binding to wild-type and mutant RET^M918T | strong binding to a large group of kinases | low overall selectivity | 2.8 nM | no fly rescue |
